ChEMBL document CHEMBL5550217, “Discovery of gem-Dimethyl-hydroxymethylpyridine Derivatives as Potent Non-nucleoside RSV Polymerase Inhibitors” (J Med Chem, 2024)
Active and inactive are the calls of the source. No cut-off for these calls is given here.

Assays:
[1] = Cytotoxicity against human HeLa cells measured after 3 days by ATPlite kit assay; type: toxicity, cell-based; settings: time 3 day
[2] = AUC (0 to last) in Beagle dog at 0.5 mg/kg, po measured upto 24 hrs by LC-MS/MS analysis; type: ADME, organism-based, Canis lupus familiaris; settings: in vivo
[3] = Half life in Beagle dog at 0.5 mg/kg, iv measured upto 24 hrs by LC-MS/MS analysis; type: ADME, organism-based, Canis lupus familiaris; settings: in vivo
Human orthopneumovirus [4] = test: In vivo antiviral activity against Human respiratory syncytial virus (RSV) M37 infected in lamb model assessed as reduction in viral RNA level in lung at 0.25 to 4 mg/kg, po QD from 1 until 5 day post infection by qRT-PCR analysis; type: functional, organism-based; settings: dose 0.25-4 mg/kg
Human orthopneumovirus [5] = test: In vivo antiviral activity against Human respiratory syncytial virus (RSV) M37 infected in lamb model assessed as reduction in microscopic lesions in lung at 1 to 4 mg/kg, po QD from 1 until 5 day post infection; type: functional, organism-based; settings: dose 1-4 mg/kg
[6] = test system: Respiratory syncytial virus; test: Antiviral activity against Respiratory syncytial virus (RSV) infected in human APC-126 cells assessed as replicon by measuring protein adjusted effective concentration in the presence of 40% human serum measured after 3 days by Renilla Glo assay; type: functional, organism-based; settings: 72 h
[7] = Half life in Balb/c mouse at 2.5 mg/kg, iv measured upto 24 hrs by LC-MS/MS analysis; type: ADME, organism-based; settings: in vivo
[8] = Volume of distribution at steady state in Sprague-Dawley rat at 1.25 mg/kg, iv measured upto 24 hrs by LC-MS/MS analysis; type: ADME, organism-based; settings: in vivo, read-out: Vdss
[9] = Half life in Sprague-Dawley rat at 1.25 mg/kg, iv measured upto 24 hrs by LC-MS/MS analysis; type: ADME, organism-based; settings: in vivo
[10] = Lipophilicity, logD of the compound; type: physicochemical; settings: octanol/water
[11] = Cmax in Beagle dog at 0.5 mg/kg, po measured upto 24 hrs by LC-MS/MS analysis; type: ADME, organism-based, Canis lupus familiaris; settings: in vivo
[12] = Plasma protein binding in human assessed as free fraction; type: ADME, cell-free
[13] = Cmax in Balb/c mouse at 10 mg/kg, po measured upto 24 hrs by LC-MS/MS analysis; type: ADME, organism-based; settings: in vivo
[14] = Oral bioavailability in Balb/c mouse at 10 mg/kg measured upto 24 hrs by LC-MS/MS analysis; type: ADME, organism-based; settings: in vivo
[15] = Clearance in Balb/c mouse at 2.5 mg/kg, iv measured upto 24 hrs by LC-MS/MS analysis; type: ADME, organism-based; settings: in vivo
[16] = Clearance in Sprague-Dawley rat at 1.25 mg/kg, iv measured upto 24 hrs by LC-MS/MS analysis; type: ADME, organism-based; settings: in vivo
[17] = Oral bioavailability in Beagle dog at 0.5 mg/kg measured upto 24 hrs by LC-MS/MS analysis; type: ADME, organism-based, Canis lupus familiaris; settings: in vivo
Human orthopneumovirus [18] = test: In vivo antiviral activity against Human respiratory syncytial virus (RSV)-A2 intranasally infected in BALB/c mouse assessed as reduction in viral RNA level in lung treated orally QD 1 hr prior infection until 3 day post infection by qRT-PCR analysis; type: functional, organism-based; settings: dose 1-100 mg/kg, route po
[19] = Apparent permeability across apical to basolateral side in dog MDCK-MDR1 cells at 5 uM measured after 60 mins; type: ADME, cell-based, Canis lupus familiaris
[20] = AUC (0 to last) in Balb/c mouse at 10 mg/kg, po measured upto 24 hrs by LC-MS/MS analysis; type: ADME, organism-based; settings: in vivo
[21] = Plasma protein binding in rat assessed as free fraction; type: ADME, cell-free
[22] = Cmax in Sprague-Dawley rat at 5 mg/kg, po measured upto 24 hrs by LC-MS/MS analysis; type: ADME, organism-based; settings: in vivo
[23] = Metabolic stability in dog hepatocytes assessed as intrinsic clearance per 10^6 cells at 1 uM measured upto 180 mins by LC-MS/MS analysis; type: ADME, cell-based, Canis lupus familiaris, Hepatocyte; settings: read-out: CLH
[24] = Plasma protein binding in mouse assessed as free fraction; type: ADME, cell-free
[25] = Oral bioavailability in Sprague-Dawley rat at 5 mg/kg measured upto 24 hrs by LC-MS/MS analysis; type: ADME, organism-based; settings: in vivo
[26] = Inhibition of human RSV-A strain Memphis 37 RNA polymerase; set-up: species or system Human respiratory syncytial virus A
[27] = Inhibition of RSV RNA polymerase assessed as RNA products using […] template by SPA primer extension enzymatic assay; set-up: species or system Respiratory syncytial virus
Human orthopneumovirus [28] = test: In vivo antiviral activity against Human respiratory syncytial virus (RSV) M37 infected in lamb model assessed as reduction in viral titer in lung treated orally QD from 1 until 5 day post infection; type: functional, organism-based; settings: dose 0.4-4 mg/kg, route po
Human orthopneumovirus [29] = test: In vivo antiviral activity against Human respiratory syncytial virus (RSV) M37 infected in lamb model assessed as lung histopathology score at 1 to 4 mg/kg, po QD from 1 until 5 day post infection by H and E staining based assay; type: functional, organism-based; settings: dose 1-4 mg/kg
[30] = Metabolic stability in human hepatocytes assessed as intrinsic clearance per 10^6 cells at 1 uM measured upto 180 mins by LC-MS/MS analysis; type: ADME, cell-based, Hepatocyte; settings: read-out: CLH
Human orthopneumovirus [31] = test: In vivo antiviral activity against Human respiratory syncytial virus (RSV) M37 infected in lamb model assessed as reduction in gross lesions in lung at 1 to 4 mg/kg, po QD from 1 until 5 day post infection; type: functional, organism-based; settings: dose 1-4 mg/kg
[32] = Metabolic stability in mouse hepatocytes assessed as intrinsic clearance per 10^6 cells at 1 uM measured upto 180 mins by LC-MS/MS analysis; type: ADME, cell-based, Hepatocyte; settings: read-out: CLH
[33] = Volume of distribution at steady state in Beagle dog at 0.5 mg/kg, iv measured upto 24 hrs by LC-MS/MS analysis; type: ADME, organism-based, Canis lupus familiaris; settings: in vivo, read-out: Vdss
Human orthopneumovirus [34] = test: In vivo antiviral activity against Human respiratory syncytial virus (RSV)-A2 intranasally infected in BALB/c mouse assessed as reduction in viral titer in lung treated orally QD 1 hr prior infection until 3 day post infection by plaque assay; type: functional, organism-based; settings: dose 1-100 mg/kg, route po
[35] = Ratio of drug concentration in Sprague-Dawley rat lung to plasma at 5 mg/kg, po measured upto 24 hrs by LC-MS/MS analysis; type: ADME, organism-based
Human orthopneumovirus [36] = test: In vivo antiviral activity against Human respiratory syncytial virus (RSV) M37 infected in lamb model assessed as reduction in RSV cells in lung at 0.25 to 4 mg/kg, po QD from 1 until 5 day post infection by branched DNA technology (RNAscope); type: functional, organism-based; settings: dose 0.25-4 mg/kg
[37] = Plasma protein binding in dog assessed as free fraction; type: ADME, cell-free, Canis lupus familiaris
Human orthopneumovirus [38] = test: In vivo antiviral activity against Human respiratory syncytial virus (RSV) M37 infected in lamb model assessed as reduction in BALF peak viral titer in lung treated orally QD from 1 until 5 day post infection; type: functional, organism-based; settings: dose 0.4-4 mg/kg, route po
[39] = AUC (0 to last) in Sprague-Dawley rat at 5 mg/kg, po measured upto 24 hrs by LC-MS/MS analysis; type: ADME, organism-based; settings: in vivo
[40] = Volume of distribution at steady state in Balb/c mouse at 2.5 mg/kg, iv measured upto 24 hrs by LC-MS/MS analysis; type: ADME, organism-based; settings: in vivo, read-out: Vdss
P-glycoprotein = test: Efflux ratio of permeability in dog MDCK-MDR1 cells assessed as P-glycoprotein mediated efflux; type: ADME, cell-based, Canis lupus familiaris
[41] = Metabolic stability in rat hepatocytes assessed as intrinsic clearance per 10^6 cells at 1 uM measured upto 180 mins by LC-MS/MS analysis; type: ADME, cell-based, Hepatocyte; settings: read-out: CLH
[42] = test system: Respiratory syncytial virus; test: Antiviral activity against Respiratory syncytial virus (RSV)-A2-eGFP infected in human HeLa cells assessed as eGFP expression measured after 3 days by RSV Cell-based infection assay; type: functional, organism-based; settings: 72 h
[43] = Clearance in Beagle dog at 0.5 mg/kg, iv measured upto 24 hrs by LC-MS/MS analysis; type: ADME, organism-based, Canis lupus familiaris; settings: in vivo

- AUC(0-t) at 24 h [2]: 1200 ng·h/mL
- half-life [3]: 4.25 h
- EC50 [6]: 13 nM
- half-life [7]: 1.95 h
- Vd [8]: 1.04 L/kg
- half-life [9]: 3.15 h
- logD [10]: 3.55
- Cmax [11]: 249 ng/mL
- Fu [12]: 0.66%
- Cmax [13]: 1730 ng/mL
- bioavailability [14]: 61%
- clearance [15]: 10.6 mL/min/kg
- clearance [16]: 8.03 mL/min/kg
- bioavailability [17]: 81%
- Papp A→B at 1 h, 5 µM [19]: 9.8 ×10⁻⁶ cm/s
- AUC(0-t) at 24 h [20]: 9580 ng·h/mL
- Fu [21]: 0.13%
- Cmax [22]: 401 ng/mL
- hepatocyte CLint at 1 µM [23]: 6.4 µL/min/1e6 cells
- Fu [24]: 0.45%
- bioavailability [25]: 20%
- IC50 [26]: 0.3 nM
- IC50 [27]: 0.29 nM
- hepatocyte CLint at 1 µM [30]: < 1.9 µL/min/1e6 cells
- hepatocyte CLint at 1 µM [32]: 6.2 µL/min/1e6 cells
- Vd [33]: 1.49 L/kg
- Kp at 24 h [35]: 1
- Fu [37]: 0.87%
- AUC(0-t) at 24 h [39]: 2100 ng·h/mL
- Vd [40]: 1.68 L/kg
- efflux ratio (P-glycoprotein): > 93
- hepatocyte CLint at 1 µM [41]: 27 µL/min/1e6 cells
- EC50 [42]: 0.82 nM
- clearance [43]: 5.62 mL/min/kg
Compound: COc1cc(C(=O)NC[C@](O)(c2cc(C(C)(C)O)c(F)c(-c3ccc(F)cc3)n2)C(F)(F)F)cc2cc(C)nnc12
- CC50 at 72 h [1]: 27700 nM
- Activity (Human orthopneumovirus [4]): Active
- Activity (Human orthopneumovirus [5]): Active
- Activity (Human orthopneumovirus [18]): Dose-Dependent Effect
- Activity (Human orthopneumovirus [28]): Dose-Dependent Effect
- Activity (Human orthopneumovirus [29]): Active
- Activity (Human orthopneumovirus [31]): Active
- Activity (Human orthopneumovirus [34]): Dose-Dependent Effect
- Activity (Human orthopneumovirus [36]): Active
- Activity (Human orthopneumovirus [38]): Dose-Dependent Effect
